Measured values reported in PubChem BioAssay AID1259407 (Chemical Carcinogenesis Research Information System (CCRIS), 2018).
Activity calls are given as the source filed them. How the calls were made is not given here.

System: CCRIS mutagenicity, Ames/micronucleus/aberration tests
Assay: CCRIS mutagenicity studies

Compound: Nc1cccc(N)c1
- mutagenic call (Test System: AMES SALMONELLA TYPHIMURIUM, Strain/Indicator: TA100, Metabolic Activation: S-9, Method: PREINCUBATION): active; positive
- mutagenic call (Test System: AMES SALMONELLA TYPHIMURIUM, Strain/Indicator: TA1535, Metabolic Activation: HAMSTER, LIVER, S-9, AROCLOR 1254 (10%), Method: PREINCUBATION): inactive; negative
- mutagenic call (Test System: AMES SALMONELLA TYPHIMURIUM, Strain/Indicator: TA1535, Metabolic Activation: HAMSTER, LIVER, S-9, AROCLOR 1254 (30%), Method: PREINCUBATION): active; positive
- mutagenic call (Test System: AMES SALMONELLA TYPHIMURIUM, Strain/Indicator: TA1535, Metabolic Activation: NONE, Method: PREINCUBATION): inactive; negative
- mutagenic call (Test System: AMES SALMONELLA TYPHIMURIUM, Strain/Indicator: TA1535, Metabolic Activation: RAT, LIVER, S-9, AROCLOR 1254 (5%), Method: PREINCUBATION): active; positive
- mutagenic call (Test System: AMES SALMONELLA TYPHIMURIUM, Strain/Indicator: TA1535, Metabolic Activation: RAT, LIVER, S-9, AROCLOR 1254 (30%), Method: PREINCUBATION): inactive; negative
- mutagenic call (Test System: AMES SALMONELLA TYPHIMURIUM, Strain/Indicator: TA1537, Metabolic Activation: RAT, LIVER, S-9, AROCLOR 1254 (4 OR 10%), Method: STANDARD PLATE): active; positive
- mutagenic call (Test System: AMES SALMONELLA TYPHIMURIUM, Strain/Indicator: TA1538, Metabolic Activation: RAT, LIVER, S-9, AROCLOR 1254 (4 OR 10%), Method: STANDARD PLATE): active; positive
- mutagenic call (Test System: AMES SALMONELLA TYPHIMURIUM, Strain/Indicator: TA1538, Metabolic Activation: RAT, LIVER, S-9, PHENOBARBITAL, Method: STANDARD PLATE): active; positive
- mutagenic call (Test System: AMES SALMONELLA TYPHIMURIUM, Strain/Indicator: YG1021, Metabolic Activation: RAT, LIVER, S-9, PHENOBARBITAL AND 5,6-BENZOFLAVONE, Method: PREINCUBATION): active; positive
- mutagenic call (Test System: AMES SALMONELLA TYPHIMURIUM, Strain/Indicator: YG1024, Metabolic Activation: CELL-FREE PLANT MIXTURE TX1MX, Method: PREINCUBATION): active; positive
- mutagenic call (Test System: AMES SALMONELLA TYPHIMURIUM, Strain/Indicator: YG1024, Metabolic Activation: NONE, Method: PREINCUBATION): inactive; negative
- mutagenic call (Test System: AMES SALMONELLA TYPHIMURIUM, Strain/Indicator: YG1024, Metabolic Activation: NONE, Method: STANDARD PLATE): inactive; negative
- mutagenic call (Test System: AMES SALMONELLA TYPHIMURIUM, Strain/Indicator: YG1024, Metabolic Activation: PLANT (PERSEA AMERICANA) S-117, Method: STANDARD PLATE): active; positive
- mutagenic call (Test System: AMES SALMONELLA TYPHIMURIUM, Strain/Indicator: YG1024, Metabolic Activation: PLANT (ZEA MAYS) S-9, Method: STANDARD PLATE): active; positive
- mutagenic call (Test System: AMES SALMONELLA TYPHIMURIUM, Strain/Indicator: YG1024, Metabolic Activation: RAT LIVER S-9, AROCLOR 1254, Method: STANDARD PLATE): active; positive
- mutagenic call (Test System: AMES SALMONELLA TYPHIMURIUM, Strain/Indicator: YG1024, Metabolic Activation: RAT LIVER S-9, Method: STANDARD PLATE): active; positive
- mutagenic call (Test System: AMES SALMONELLA TYPHIMURIUM, Strain/Indicator: YG1024, Metabolic Activation: RAT, LIVER, S-9, PHENOBARBITAL AND 5,6-BENZOFLAVONE, Method: PREINCUBATION): active; positive
- mutagenic call (Test System: AMES SALMONELLA TYPHIMURIUM, Strain/Indicator: YG1024, Metabolic Activation: TOBACCO, TX1 CELLS, Method: PREINCUBATION): active; positive
- mutagenic call (Test System: AMES SALMONELLA TYPHIMURIUM, Strain/Indicator: YG1029, Metabolic Activation: NONE, Method: STANDARD PLATE): inactive; negative
- mutagenic call (Test System: AMES SALMONELLA TYPHIMURIUM, Strain/Indicator: YG1029, Metabolic Activation: PLANT (PERSEA AMERICANA) S-117, Method: STANDARD PLATE): inactive; negative
- mutagenic call (Test System: AMES SALMONELLA TYPHIMURIUM, Strain/Indicator: YG1041, Metabolic Activation: RAT, LIVER, S-9, PHENOBARBITAL AND 5,6-BENZOFLAVONE, Method: PREINCUBATION): active; positive
- mutagenic call (Test System: Ames Salmonella typhimurium, Strain/Indicator: TA98, Metabolic Activation: None, Method: Preincubation): inactive; negative
- mutagenic call (Test System: Ames Salmonella typhimurium, Strain/Indicator: TA98, Metabolic Activation: Rat, Liver, S9, Sodium phenobarbital and 5,6-benzoflavone (10%), Method: Preincubation): active; positive
- mutagenic call (Test System: Ames Salmonella typhimurium, Strain/Indicator: TA100, Metabolic Activation: None, Method: Preincubation): inactive; negative
- mutagenic call (Test System: Ames Salmonella typhimurium, Strain/Indicator: TA100, Metabolic Activation: Rat, Liver, S9, Sodium phenobarbital and 5,6-benzoflavone (10%), Method: Preincubation): inactive; negative
- mutagenic call (Test System: Ames Salmonella typhimurium, Strain/Indicator: TA100, Metabolic Activation: Rat, Liver, S9, Sodium phenobarbital and 5,6-benzoflavone, Method: Preincubation): inactive; positive (repeat assay negative)
- mutagenic call (Test System: Ames Salmonella typhimurium, Strain/Indicator: TA1535, Metabolic Activation: None, Method: Preincubation): inactive; negative
- mutagenic call (Test System: Ames Salmonella typhimurium, Strain/Indicator: TA1535, Metabolic Activation: Rat, Liver, S9, Sodium phenobarbital and 5,6-benzoflavone (10%), Method: Preincubation): inactive; negative
- mutagenic call (Test System: Ames Salmonella typhimurium, Strain/Indicator: TA1537, Metabolic Activation: None, Method: Preincubation): inactive; negative
- mutagenic call (Test System: Ames Salmonella typhimurium, Strain/Indicator: TA1537, Metabolic Activation: Rat, Liver, S9, Sodium phenobarbital and 5,6-benzoflavone (10%), Method: Preincubation): active; positive
- mutagenic call (Test System: E. coli, Strain/Indicator: WP2uvrA/pKM101, Metabolic Activation: None, Method: Preincubation): inactive; negative
- mutagenic call (Test System: E. coli, Strain/Indicator: WP2uvrA/pKM101, Metabolic Activation: Rat, Liver, S9, Sodium phenobarbital and 5,6-benzoflavone (10%), Method: Preincubation): inactive; negative
- mutagenic call (Test System: UDS RODENT HEPATOCYTES, Strain/Indicator: THY INCORP (NON-S-PHASE), Metabolic Activation: NONE, Method: AUTORADIOGRAPHY): inactive; negative
